Measured values as given in publication PMC5814316 (Experimental Animals, 2017).

How the values were obtained:
[1] = Pharmacokinetic study in rats: CP and DECP with and without KTZ, KTZ alone; format: in vivo; conditions: rat, plasma; for AUC(0-inf): AUC0→∞; for MRT inf: MRT0–∞
[2] = Stability of DECP, CP and KTZ in rat plasma under storage conditions; format: physicochemical; conditions: for Short term stability, Measured / Short term stability, RE: 25 °C for 3 h; for stability throughout the whole manipulation and storage processes: short term, long term, freeze-thaw; for Long term stability, Measured / Long term stability, RE: −80 °C for 3 months; for Three freeze−thaw cycles, Measured / Three freeze−thaw cycles, RE: −80°C to 25°C
[3] = target: T1, CYP3A4 (Homo sapiens, UniProt P08684); test: in vitro; conditions: human liver microsomes
[4] = test system: CYP2B6; conditions: C-4 oxidation of CP; cited from earlier work
[5] = test system: CYP3A4; conditions: C-4 oxidation of CP; cited from earlier work
[6] = test system: CYP2C9; conditions: C-4 oxidation of CP; cited from earlier work
[7] = test system: CYP3A4; conditions: cited from earlier work
[8] = test system: rats; test: Toxicity observation in rats after single dose KTZ; format: in vivo, rat
[9] = target: T1, CYP3A4; test: KTZ inhibition of CP conversion to DECP in HLM; conditions: human liver microsomes, probe CP (cyclophosphamide)
[10] = suffering and junctival irritation of the operator; cited from earlier work
[11] = iv, 10 mg/kg, Group 1 (0 mg/kg KTZ), CP 10 mg/kg i.v., rats
[12] = iv, 10 mg/kg, Group 2 (10 mg/kg KTZ oral, 50 min before), CP 10 mg/kg i.v., rats
[13] = iv, 10 mg/kg, Group 3 (20 mg/kg KTZ oral, 50 min before), CP 10 mg/kg i.v., rats
[14] = iv, 10 mg/kg, Group 4 (40 mg/kg KTZ oral, 50 min before), CP 10 mg/kg i.v., rats

T1 sequence (P08684 whole entry): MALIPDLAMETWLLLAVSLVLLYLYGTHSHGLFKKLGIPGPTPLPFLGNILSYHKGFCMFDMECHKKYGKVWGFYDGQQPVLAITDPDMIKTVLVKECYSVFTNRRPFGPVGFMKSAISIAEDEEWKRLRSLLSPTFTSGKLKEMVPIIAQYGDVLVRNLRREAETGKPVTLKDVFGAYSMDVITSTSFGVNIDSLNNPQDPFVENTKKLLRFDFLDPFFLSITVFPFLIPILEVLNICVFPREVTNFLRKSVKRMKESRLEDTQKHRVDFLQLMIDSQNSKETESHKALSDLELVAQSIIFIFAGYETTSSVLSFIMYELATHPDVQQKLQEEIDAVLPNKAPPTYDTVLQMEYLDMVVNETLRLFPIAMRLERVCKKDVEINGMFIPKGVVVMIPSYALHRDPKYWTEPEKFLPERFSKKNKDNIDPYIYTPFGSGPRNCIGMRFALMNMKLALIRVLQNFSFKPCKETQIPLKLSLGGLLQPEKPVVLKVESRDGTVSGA

## O=P1(N(CCCl)CCCl)NCCCO1 (stereo not drawn) [CP, Cyclophosphamide]
[1]; iv, 10 mg/kg, AUC0→t, Group 2 (10 mg/kg KTZ oral, 50 min before), CP 10 mg/kg i.v., rats
  AUC(0-t): 21100 ng·h/mL
[1]; iv, 10 mg/kg, AUC0→t, Group 3 (20 mg/kg KTZ oral, 50 min before), CP 10 mg/kg i.v., rats
  AUC(0-t): 28700 ng·h/mL
[1]; iv, 10 mg/kg, AUC0→t, Group 4 (40 mg/kg KTZ oral, 50 min before), CP 10 mg/kg i.v., rats
  AUC(0-t): 38200 ng·h/mL
[1]; [11]
  AUC(0-inf): 15500 ng·h/mL
  MRT inf: 1.9 ± 0.345 h
[1]; [12]
  AUC(0-inf): 21900 ng·h/mL
  MRT inf: 1.86 ± 0.6 h
[1]; [13]
  AUC(0-inf): 29600 ng·h/mL
  MRT inf: 2.12 ± 0.361 h
[1]; [14]
  AUC(0-inf): 39000 ng·h/mL
  MRT inf: 2.67 ± 0.505 h
[1]; iv, 10 mg/kg, Cmax, Group 1 (0 mg/kg KTZ), CP 10 mg/kg i.v., rats
  Cmax: 9420 ng/mL
[1]; iv, 10 mg/kg, Cmax, Group 2 (10 mg/kg KTZ oral, 50 min before), CP 10 mg/kg i.v., rats
  Cmax: 10400 ng/mL
[1]; iv, 10 mg/kg, Cmax, Group 3 (20 mg/kg KTZ oral, 50 min before), CP 10 mg/kg i.v., rats
  Cmax: 11400 ng/mL
[1]; iv, 10 mg/kg, Cmax, Group 4 (40 mg/kg KTZ oral, 50 min before), CP 10 mg/kg i.v., rats
  Cmax: 9600 ng/mL
[1]; iv, 10 mg/kg, MRT0–t, Group 1 (0 mg/kg KTZ), CP 10 mg/kg i.v., rats
  MRT last: 1.7 ± 0.167 h
[1]; iv, 10 mg/kg, MRT0–t, Group 2 (10 mg/kg KTZ oral, 50 min before), CP 10 mg/kg i.v., rats
  MRT last: 1.72 ± 0.357 h
[1]; iv, 10 mg/kg, MRT0–t, Group 3 (20 mg/kg KTZ oral, 50 min before), CP 10 mg/kg i.v., rats
  MRT last: 2.04 ± 0.293 h
[1]; iv, 10 mg/kg, MRT0–t, Group 4 (40 mg/kg KTZ oral, 50 min before), CP 10 mg/kg i.v., rats
  MRT last: 2.65 ± 0.482 h
[1]; iv, 10 mg/kg, Tmax, Group 1 (0 mg/kg KTZ), CP 10 mg/kg i.v., rats
  Tmax: 0.194 ± 0.086 h
[1]; iv, 10 mg/kg, Tmax, Group 2 (10 mg/kg KTZ oral, 50 min before), CP 10 mg/kg i.v., rats
  Tmax: 0.194 ± 0.086 h
[1]; iv, 10 mg/kg, Tmax, Group 3 (20 mg/kg KTZ oral, 50 min before), CP 10 mg/kg i.v., rats
  Tmax: 0.139 ± 0.086 h
[1]; iv, 10 mg/kg, Tmax, Group 4 (40 mg/kg KTZ oral, 50 min before), CP 10 mg/kg i.v., rats
  Tmax: 0.347 ± 0.327 h
[2]; nominal 20 ng/ml
  Short term stability, Measured: 20.57 ± 0.81 ng/mL
  Short term stability, RE: 2.85%
  Long term stability, Measured: 18.79 ± 0.42 ng/mL
  Long term stability, RE: −6.05%
  Three freeze−thaw cycles, Measured: 18.68 ± 0.20 ng/mL
  Three freeze−thaw cycles, RE: −6.60%
[2]; nominal 80 ng/ml
  Short term stability, Measured: 84.49 ± 2.05 ng/mL
  Short term stability, RE: 5.61%
  Long term stability, Measured: 81.16 ± 2.40 ng/mL
  Long term stability, RE: 1.45%
  Three freeze−thaw cycles, Measured: 78.39 ± 1.43 ng/mL
  Three freeze−thaw cycles, RE: −2.01%
[2]; nominal 500 ng/ml
  Short term stability, Measured: 525.40 ± 73.09 ng/mL
  Short term stability, RE: 5.08%
  Long term stability, Measured: 509.89 ± 68.17 ng/mL
  Long term stability, RE: 1.98%
  Three freeze−thaw cycles, Measured: 490.26 ± 78.18 ng/mL
  Three freeze−thaw cycles, RE: −1.95%
[2]
  stability throughout the whole manipulation and storage processes: stable
[3]
  Km: 160 µM
[4]
  share of the total CP bioactivation: approximately 45%
[5]
  share of the total CP bioactivation: 25%
[6]
  share of the total CP bioactivation: 12%
[7]
  part of CP dechloroethylated to DECP and CAA: about 10%

## CC(=O)N1CCN(c2ccc(OCC3COC(Cn4ccnc4)(c4ccc(Cl)cc4Cl)O3)cc2)CC1 (stereo not drawn) [KTZ, ketoconazole]
[1]; po, 20 mg/kg
  AUC(0-t): 4730 ng·h/mL
  Cmax: 2050 ng/mL
  MRT last: 1.86 ± 0.193 h
  Tmax: 0.514 ± 0.399 h
[2]; nominal 10 ng/ml
  Short term stability, Measured: 9.97 ± 0.23 ng/mL
  Short term stability, RE: −0.30%
  Long term stability, Measured: 9.55 ± 0.07 ng/mL
  Long term stability, RE: −4.50%
  Three freeze−thaw cycles, Measured: 9.57 ± 0.23 ng/mL
  Three freeze−thaw cycles, RE: −4.30%
[2]; nominal 40 ng/ml
  Short term stability, Measured: 42.23 ± 0.76 ng/mL
  Long term stability, Measured: 40.04 ± 0.57 ng/mL
  Long term stability, RE: 0.10%
  Three freeze−thaw cycles, Measured: 39.46 ± 0.44 ng/mL
  Three freeze−thaw cycles, RE: −1.35%
[2]; nominal 250 ng/ml
  Short term stability, Measured: 264.51 ± 38.66 ng/mL
  Short term stability, RE: 5.80%
  Long term stability, Measured: 259.01 ± 37.39 ng/mL
  Long term stability, RE: 3.64%
  Three freeze−thaw cycles, Measured: 254.65 ± 38.96 ng/mL
  Three freeze−thaw cycles, RE: 1.86%
[2]
  stability throughout the whole manipulation and storage processes: stable
[8]
  toxicity (physiological aspects, data not shown): no obvious toxicity
[9]
  IC50: 618 nM

## O=CCCl [CAA, chloroacetaldehyde]
[10]
  exposure level at which dangerous: 45 ppm
